Legend:
Format in all cases: biochemical
Cathepsin D (Cat D) = molecular target: T1, Cathepsin D (Cat D) (Homo sapiens, UniProt P07339); test: In vitro enzymatic Cathepsin D (Cat D) FRET assay; settings: average IC50; first procedure; read-out: CatD IC50
T1 construct: made in house; host or cells: CHO cells
In short: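 Fluorescence (500 nm excitation, 580 nm emission) was measured after Tris quench of a 1 h cleavage of 20 nM quenched peptide substrate. Before that, 9 nM CHO-expressed human Cat D sat with compound for 1 h at pH 3.5 (0.05 M citrate, 5 mM CHAPS, 10% DMSO final).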

human Bace2 protein = molecular target: T2, human Bace2 protein (Homo sapiens, UniProt Q9Y5Z0); test: In vitro enzymatic BACE2 FRET assay; settings: average IC50; read-out: BACE2 Enzyme assay IC50
T2 construct: V5 (C); 6-His (C)
T2 sequence (Q9Y5Z0 63-518): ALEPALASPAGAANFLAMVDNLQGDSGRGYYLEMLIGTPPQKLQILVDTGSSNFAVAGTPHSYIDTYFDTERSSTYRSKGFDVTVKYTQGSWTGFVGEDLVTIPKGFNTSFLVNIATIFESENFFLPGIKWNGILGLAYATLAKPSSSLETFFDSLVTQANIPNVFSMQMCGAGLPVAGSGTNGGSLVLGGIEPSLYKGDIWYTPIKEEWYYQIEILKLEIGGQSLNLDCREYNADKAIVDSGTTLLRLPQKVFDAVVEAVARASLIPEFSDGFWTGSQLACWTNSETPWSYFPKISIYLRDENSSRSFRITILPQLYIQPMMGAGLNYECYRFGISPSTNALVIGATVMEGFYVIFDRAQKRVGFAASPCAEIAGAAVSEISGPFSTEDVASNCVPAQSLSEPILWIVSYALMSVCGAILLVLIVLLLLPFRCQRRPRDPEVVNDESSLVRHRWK
In short: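 Human Bace2 with C-terminal V5/6-His tag (0.2 nM) pre-incubated 1 h with inhibitor in 0.05 M acetate pH 4.2, 10% DMSO, 100 uM genapol; reaction started with 50 nM FRET peptide substrate, run 1 h. Stopped with Tris to neutral pH; fluorescence increase from substrate cleavage measured.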

BACE1 = BACE1 (Homo sapiens, UniProt P56817); test: In vitro enzymatic BACE FRET assay; settings: average IC50; read-out: BACE1 Enzyme assay IC50
In short: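 Fluorescence (excitation 488 nm, […]) from cleavage of quenched peptide substrate (50 nM), reaction run 1 h after 1 h enzyme–inhibitor pre-incubation, then neutralised with Tris. Conditions: 0.2 nM enzyme, pH 4.2 acetate 0.05 M, 10% DMSO final, 100 uM genapol.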

Sequence of BACE1 (P56817 46-501, species assumed): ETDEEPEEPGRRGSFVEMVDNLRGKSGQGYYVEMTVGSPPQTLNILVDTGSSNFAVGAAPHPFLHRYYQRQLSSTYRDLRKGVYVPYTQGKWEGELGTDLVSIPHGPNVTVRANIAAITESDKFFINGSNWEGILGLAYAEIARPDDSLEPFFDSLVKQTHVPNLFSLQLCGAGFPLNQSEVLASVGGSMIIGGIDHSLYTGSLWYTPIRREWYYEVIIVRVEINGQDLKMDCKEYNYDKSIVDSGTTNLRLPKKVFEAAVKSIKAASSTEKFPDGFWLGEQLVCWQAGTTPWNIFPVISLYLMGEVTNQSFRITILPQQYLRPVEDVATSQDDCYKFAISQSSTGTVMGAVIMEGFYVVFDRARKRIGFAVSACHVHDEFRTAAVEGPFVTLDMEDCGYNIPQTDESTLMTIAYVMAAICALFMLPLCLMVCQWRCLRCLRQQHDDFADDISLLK
T1 sequence (P07339 65-412, species assumed): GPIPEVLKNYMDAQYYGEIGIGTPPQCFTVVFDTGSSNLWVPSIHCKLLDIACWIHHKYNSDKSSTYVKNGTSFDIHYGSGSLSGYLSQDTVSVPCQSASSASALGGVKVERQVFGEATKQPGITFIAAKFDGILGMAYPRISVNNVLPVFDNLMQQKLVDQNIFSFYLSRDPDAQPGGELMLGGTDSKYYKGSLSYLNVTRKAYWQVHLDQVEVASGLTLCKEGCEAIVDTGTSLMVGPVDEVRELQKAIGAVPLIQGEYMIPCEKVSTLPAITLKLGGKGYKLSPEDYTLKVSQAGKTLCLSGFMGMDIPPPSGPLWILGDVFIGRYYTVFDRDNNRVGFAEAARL

SMILES	IC50 (Cathepsin D (Cat D)) [µM]	IC50 (human Bace2 protein) [µM]	IC50 (BACE1) [µM]
C[C@]1(c2cc(Nc3ncnc4cc(C#N)cnc34)ccc2F)N=C(N)[C@@]2(CF)CC[C@@H]1S2(=O)=O [Example 40, 4-((3-((1S,2R,5R)-4-amino-5-(fluoromethyl)-2-methyl-8,8-dioxido-8-thia-3-azabicyclo[3.2.1]oct-3-en-2-yl)-4-fluorophenyl)amino)pyrido[3,2-d]pyrimidine-7-carbonitrile]	650	0.022	0.008
COc1cnc2c(Nc3ccc(F)c([C@@]4(C)N=C(N)[C@@]5(CF)CC[C@@H]4S5(=O)=O)c3)nccc2n1 [Example 41, N-(3-((1S,2R,5R)-4-amino-5-(fluoromethyl)-2-methyl-8,8-dioxido-8-thia-3-azabicyclo[3.2.1]oct-3-en-2-yl)-4-fluorophenyl)-2-methoxypyrido[3,4-b]pyrazin-5-amine]	867	0.01	0.009
COc1cnc(C(=O)Nc2ccc(F)c([C@@]3(C)N=C(N)[C@@]4(CF)CC[C@@H]3S4(=O)=O)c2)c(C)c1 [Example 42, N-(3-((1S,2R,5R)-4-amino-5-(fluoromethyl)-2-methyl-8,8-dioxido-8-thia-3-azabicyclo[3.2.1]oct-3-en-2-yl)-4-fluorophenyl)-5-methoxy-3-methyl-2-pyridinecarboxamide]	757	0.003	0.013
C#CCOc1ccc(C(=O)Nc2ccc(F)c([C@@]3(C)N=C(N)[C@@]4(CF)CC[C@@H]3S4(=O)=O)c2)nc1 [Example 52, N-(3-((1S,2R,5R)-4-amino-5-(fluoromethyl)-2-methyl-8,8-dioxido-8-thia-3-azabicyclo[3.2.1]oct-3-en-2-yl)-4-fluorophenyl)-5-(2-propyn-1-yloxy)-2-pyridinecarboxamide]	811	0.018	0.001
COc1cnc2c(Nc3ccc(F)c([C@@]4(C)N=C(N)[C@@]5(CF)CC[C@@H]4S5(=O)=O)c3)nccc2c1 [Example 56, N-(3-((1S,2R,5R)-4-amino-5-(fluoromethyl)-2-methyl-8,8-dioxido-8-thia-3-azabicyclo[3.2.1]oct-3-en-2-yl)-4-fluorophenyl)-3-methoxy-1,7-naphthyridin-8-amine]	> 400	0.0185	0.0188
C#CCOc1cnc(C(=O)Nc2ccc(F)c([C@@]3(C)N=C(N)[C@@]4(CF)CC[C@@H]3S4(=O)=O)c2)c(C)n1 [Example 59, N-(3-((1S,2R,5R)-4-amino-5-(fluoromethyl)-2-methyl-8,8-dioxido-8-thia-3-azabicyclo[3.2.1]oct-3-en-2-yl)-4-fluorophenyl)-3-methyl-5-(2-propyn-1-yloxy)-2-pyrazinecarboxamide]	837	0.003	0.001
COc1cnc(C(=O)Nc2ccc(F)c([C@@]3(C)N=C(N)[C@@]4(C)CC[C@@H]3S4(=O)=O)c2)cn1 [Example 61, N-(3-((1S,2R,5R)-4-amino-2,5-dimethyl-8,8-dioxido-8-thia-3-azabicyclo[3.2.1]oct-3-en-2-yl)-4-fluorophenyl)-5-methoxy-2-pyrazinecarboxamide]	2500	0.007	0.005
COc1cnc(C(=O)Nc2ccc(F)c([C@@]3(C)N=C(N)[C@@]4(CF)CC[C@@H]3S4(=O)=O)c2)c(C)n1 [Example 76, N-(3-((1S,2R,5R)-4-amino-5-(fluoromethyl)-2-methyl-8,8-dioxido-8-thia-3-azabicyclo[3.2.1]oct-3-en-2-yl)-4-fluorophenyl)-5-methoxy-3-methyl-2-pyrazinecarboxamide]	1060	0.004	0.01
C[C@]1(c2cc(NC(=O)c3ccc(Cl)cn3)ccc2F)N=C(N)[C@@]2(CF)CC[C@@H]1S2(=O)=O [Example 77, N-(3-((1S,2R,5R)-4-amino-5-(fluoromethyl)-2-methyl-8,8-dioxido-8-thia-3-azabicyclo[3.2.1]oct-3-en-2-yl)-4-fluorophenyl)-5-chloro-2-pyridinecarboxamide]	570	0.001	0.003
COc1cnc2c(Nc3ccc(F)c([C@@]4(C)N=C(N)[C@@]5(C)CC[C@@H]4S5(=O)=O)c3)ncc(F)c2c1 [Example 78, N-(3-((1S,2R,5R)-4-amino-2,5-dimethyl-8,8-dioxido-8-thia-3-azabicyclo[3.2.1]oct-3-en-2-yl)-4-fluorophenyl)-5-fluoro-3-methoxy-1,7-naphthyridin-8-amine]	3240	0.005	0.003
COc1cnc2c(Nc3ccc(F)c([C@@]4(C)N=C(N)[C@@]5(C)CC[C@@H]4S5(=O)=O)c3)nccc2n1 [Example 80, N-(3-((1S,2R,5R)-4-amino-2,5-dimethyl-8,8-dioxido-8-thia-3-azabicyclo[3.2.1]oct-3-en-2-yl)-4-fluorophenyl)-2-methoxypyrido[3,4-b]pyrazin-5-amine]	> 400	0.015	0.008
CC#CCOc1cnc(C(=O)Nc2ccc(F)c([C@@]3(C)N=C(N)[C@@]4(C)CC[C@@H]3S4(=O)=O)c2)cn1 [Example 82, N-(3-((1S,2R,5R)-4-amino-2,5-dimethyl-8,8-dioxido-8-thia-3-azabicyclo[3.2.1]oct-3-en-2-yl)-4-fluorophenyl)-5-(2-butyn-1-yloxy)-2-pyrazinecarboxamide]	717	0.003	0.0005
Cc1cc(Cl)cnc1C(=O)Nc1ccc(F)c([C@@]2(C)N=C(N)[C@@]3(CF)CC[C@@H]2S3(=O)=O)c1 [Example 88, N-(3-((1S,2R,5R)-4-amino-5-(fluoromethyl)-2-methyl-8,8-dioxido-8-thia-3-azabicyclo[3.2.1]oct-3-en-2-yl)-4-fluorophenyl)-5-chloro-3-methyl-2-pyridinecarboxamide]	685	0.0008	0.003
Cc1cc(C#N)cnc1C(=O)Nc1ccc(F)c([C@@]2(C)N=C(N)[C@@]3(CF)CC[C@@H]2S3(=O)=O)c1 [Example 96, N-(3-((1S,2R,5R)-4-amino-5-(fluoromethyl)-2-methyl-8,8-dioxido-8-thia-3-azabicyclo[3.2.1]oct-3-en-2-yl)-4-fluorophenyl)-5-cyano-3-methyl-2-pyridinecarboxamide]	733	0.001	0.002
COc1cnc2c(Nc3ccc(F)c([C@@]4(C)N=C(N)[C@@]5(CF)CC[C@@H]4S5(=O)=O)c3)ncnc2c1 [Example 97, N-(3-((1S,2R,5R)-4-amino-5-(fluoromethyl)-2-methyl-8,8-dioxido-8-thia-3-azabicyclo[3.2.1]oct-3-en-2-yl)-4-fluorophenyl)-7-methoxypyrido[3,2-d]pyrimidin-4-amine]	359	0.02	0.007
C[C@]1(c2cc(Nc3nccc4cc(C#N)cnc34)ccc2F)N=C(N)[C@@]2(CF)CC[C@@H]1S2(=O)=O [Example 100, 8-((3-((1S,2R,5R)-4-amino-5-(fluoromethyl)-2-methyl-8,8-dioxido-8-thia-3-azabicyclo[3.2.1]oct-3-en-2-yl)-4-fluorophenyl)amino)-1,7-naphthyridine-3-carbonitrile]	337	0.0006	0.001
Cc1cc(OC(F)F)cnc1C(=O)Nc1ccc(F)c([C@@]2(C)N=C(N)[C@@]3(CF)CC[C@@H]2S3(=O)=O)c1 [Example 102, N-(3-((1S,2R,5R)-4-amino-5-(fluoromethyl)-2-methyl-8,8-dioxido-8-thia-3-azabicyclo[3.2.1]oct-3-en-2-yl)-4-fluorophenyl)-5-(difluoromethoxy)-3-methyl-2-pyridinecarboxamide]	451	0.008	0.004
C[C@]1(c2cc(Nc3nccc4nc(OCc5ncco5)cnc34)ccc2F)N=C(N)[C@@]2(CF)CC[C@@H]1S2(=O)=O [Example 104, N-(3-((1S,2R,5R)-4-amino-5-(fluoromethyl)-2-methyl-8,8-dioxido-8-thia-3-azabicyclo[3.2.1]oct-3-en-2-yl)-4-fluorophenyl)-2-(1,3-oxazol-2-ylmethoxy)pyrido[3,4-b]pyrazin-5-amine]	799	0.003	0.002
C[C@]1(c2cc(Nc3ncnc4cc(C(F)(F)F)cnc34)ccc2F)N=C(N)[C@@]2(C)CC[C@@H]1S2(=O)=O [Example 106, N-(3-((1S,2R,5R)-4-amino-2,5-dimethyl-8,8-dioxido-8-thia-3-azabicyclo[3.2.1]oct-3-en-2-yl)-4-fluorophenyl)-7-(trifluoromethyl)pyrido[3,2-d]pyrimidin-4-amine]	317	0.067	0.011

Reference: patent publication US9096615B2, “Bridged bicyclic amino thiazine dioxide compounds as inhibitors of beta-secretase and methods of use thereof” (AMGEN INC., priority 2013, dated 2015)
